# According to patent US20150258057A1, “FATTY ACID DERIVATIVES FOR TREATING INFECTIOUS DISEASES” (IMARKO RESEARCH S.A., priority 2014, published 2015):
# What was measured:
# Assay in all cases: diffusion method in agar medium (zone of inhibition)
# Format in all cases: cell-based
# [1] = tested on: Saccharomyces cerevisiae; conditions: for inhibition of growth (in words): Table 2
# Method: (§1) The antibiotic activity of zinc and copper soaps (salts of copper caprylate, caprate, caproate and laurate; and salts of zinc caprylate, caprate, caproate and laurate) was measured according to the diffusion method in agar medium, the protocol of which is detailed below.
# (§2) This method consists in depositing on inoculated agar culture medium sterile absorbent paper discs impregnated with the antibiotic solution to be examined.
# (§3) The activity of an antibiotic is estimated by comparing the inhibition of growth of sensitive microorganisms caused respectively by known concentrations of the antibiotic to be examined and of a reference substance.
# (§4) The diluents and culture media used are: • 0.85% physiological saline (AES, reference PHYW-AEB110389), • buffered peptone water (bioMerieux, reference 42111), • Sabouraud glucose agar with chloramphenicol (bioMerieux, reference 42620), • Neutral MRS agar pH=6.4 (AES, reference AEB621756N), • Trypcase soy agar (bioMerieux, reference 41466), • Cetrimide agar (bioMerieux, reference 43565).
# (§5) The agar culture medium is poured into a petri dish. Once solidified, the surface of the agar is inoculated in a layer with the selected microorganism. Then fitter paper discs, 6.6 mm in diameter, impregnated with the various solutions to be tested are placed on the surface. The petri dishes are left at room temperature for about 1 hour to allow the substances to diffuse in the agar.
# (§6) The cultures are then incubated at 32.5° C.±2.5° C. The agar media and the incubation conditions are suited to the inoculated microorganism.
# (§7) The diameter of the zone of inhibition is a function of the concentration, diffusion and activity of the tested substance placed on the filter.
# [2] = tested on: Bacillus coagulans (spores); conditions: for inhibition of growth (in words): Table 2
# Method: as §1, §2, §3, §4, §5, §6, §7
# [3] = tested on: Lactobacillus plantarum; conditions: for inhibition of growth (in words): Table 2
# Method: as §1, §2, §3, §4, §5, §6, §7
# [4] = tested on: Lactobacillus acidophilus; conditions: for inhibition of growth (in words): Table 2
# Method: as §1, §2, §3, §4, §5, §6, §7
# [5] = tested on: Bifidobacterium; conditions: for inhibition of growth (in words): Table 2
# Method: as §1, §2, §3, §4, §5, §6, §7
# [6] = tested on: Lactobacillus paracasei; conditions: for inhibition of growth (in words): Table 2
# Method: as §1, §2, §3, §4, §5, §6, §7
# [7] = tested on: Pseudomonas putida; conditions: 200 mg in 2 ml of DMSO, disc 6.6 mm
# Method: as §1, §2, §3, §4, §5, §6, §7
# [8] = 200 mg in 2 ml of DMSO, disc 6.6 mm
compound,measurement,setting,value
CCCCCCCC(=O)OCC(O)CO (stereo not shown) [Glyceryl caprylate],inhibition of growth (in words),[1],inhibition
same,inhibition of growth (in words),[2],inhibition
same,inhibition of growth (in words),[3],inhibition
same,inhibition of growth (in words),[4],inhibition
same,inhibition of growth (in words),[5],inhibition
same,inhibition of growth (in words),[6],inhibition
CCCCCCCCCCCC(=O)OCC(O)CO (stereo not shown) [Glycerol monolaurate],inhibition of growth (in words),[1],no inhibition
same,inhibition of growth (in words),[2],inhibition
same,inhibition of growth (in words),[3],no inhibition
same,inhibition of growth (in words),[4],inhibition
same,inhibition of growth (in words),[5],no inhibition
same,inhibition of growth (in words),[6],no inhibition
CCCCCCCC(=O)Oc1cc(C)ccc1C(C)C [Thymol caprylate],Diameter of inhibition,[1]; [8],7.28 mm
same,Diameter of inhibition,[2]; [8],8.5 mm
same,Diameter of inhibition,[3]; [8],6.9 mm
same,Diameter of inhibition,[4]; [8],8.2 mm
same,Diameter of inhibition,[5]; [8],9 mm
same,Diameter of inhibition,[7],7.86 mm
same,Diameter of inhibition,[6]; [8],7.75 mm
